Data as given in patent US10294229B2, “Heteroaryl substituted aminopyridine compounds” (BRISTOL-MYERS SQUIBB COMPANY, priority 2015, dated 2019).
pEC50, pIC50: −log10 of the molar value.

Columns and labels:
[1] = target: IRAK4 (Homo sapiens (Human), UniProt Q9NWZ3); experiment: IRAK4 Inhibition Assay; assay type: biochemical; conditions: ATP 500 μM; IRAK4 0.6 nM
In short: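 Mobility-shift readout: phosphorylated and unphosphorylated fluorescent peptide (1.5 μM) resolved by electrophoresis after a 60 min room-temperature reaction stopped with EDTA. Reaction holds 0.6 nM IRAK4, 500 μM ATP and 1.6% DMSO in HEPES pH 7.2/MgCl2/Brij 35/DTT buffer; percent inhibition set against vehicle and no-enzyme controls.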

[2] = Caco-2 Permeability Assay; assay type: in vitro ADME; conditions: human, Caco-2, test compound 3 μM
In short: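 Bidirectional permeability measured over 2 h at 37° C, compound dosed at 3 μM in the donor compartment (apical for absorptive, basolateral for secretive) with plain buffer as receiver.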

[3] = system: Human whole blood stimulated with a TLR2 agonist (lipoteichoic acid), IL-6 levels; experiment: IRAK4 Whole Blood Assay; assay type: cell-based; conditions: Homo sapiens, lipoteichoic acid 10 μg/mL
In short: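 ACD-A-anticoagulated human whole blood was preincubated with compounds for 60 min at 37 °C under 5% CO2. It was then stimulated with 10 μg/mL lipoteichoic acid (final) in RPMI for 5 h. IL-6 in plasma supernatants was measured by flow cytometry bead assay.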

Chain of IRAK4 (Q9NWZ3 whole entry, species assumed): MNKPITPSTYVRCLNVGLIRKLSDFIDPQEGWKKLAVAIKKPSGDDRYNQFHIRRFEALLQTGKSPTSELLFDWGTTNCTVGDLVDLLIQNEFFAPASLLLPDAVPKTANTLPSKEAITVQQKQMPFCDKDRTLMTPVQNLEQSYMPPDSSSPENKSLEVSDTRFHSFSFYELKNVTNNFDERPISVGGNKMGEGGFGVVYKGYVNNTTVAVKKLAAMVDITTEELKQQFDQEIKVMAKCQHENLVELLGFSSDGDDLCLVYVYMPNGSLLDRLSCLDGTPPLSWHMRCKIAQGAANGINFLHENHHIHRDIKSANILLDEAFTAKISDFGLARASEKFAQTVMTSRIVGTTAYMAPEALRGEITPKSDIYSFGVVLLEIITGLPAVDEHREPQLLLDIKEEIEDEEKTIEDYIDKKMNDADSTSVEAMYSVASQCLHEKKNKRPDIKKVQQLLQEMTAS

| Structure (SMILES) | pIC50 [1] | Papp at 2 h, 3 µM [2] [×10⁻⁶ cm/s] | pEC50 [3] |
| --- | --- | --- | --- |
| CCCn1cnc(-c2cnc(-n3ncc4cc(C#N)cnc43)cc2NC(C)C)c1 [Example 219] | 8.00 | 31.8 | 5.83 |
| CC(C)Nc1cc(-n2ncc3cc(C#N)cnc32)ncc1-c1cn(CCC(C)(C)O)cn1 [Example 240, 1-(5-(1-(3-hydroxy-3-methylbutyl)-1H-imidazol-4-yl)-4-(isopropylamino)pyridin-2-yl)-1H-pyrazolo[3,4-b]pyridine-5-carbonitrile] | 8.52 | 5.7 | 6.13 |
| CCCc1cn(-c2cnc(-n3ncc4cc(C#N)cnc43)cc2NC(C)C)nn1 [Example 263, 1-(4-(isopropylamino)-5-(4-propyl-1H-1,2,3-triazol-1-yl)pyridin-2-yl)-1H-pyrazolo[3,4-b]pyridine-5-carbonitrile] | 7.82 | 7.8 | 6.48 |
| CC(O)Cc1cn(-c2cnc(-n3ncc4cc(C#N)cnc43)cc2NCC(C)(C)O)nn1 (stereo not drawn) [Example 264, 1-(4-((2-hydroxy-2-methylpropyl)amino)-5-(4-(2-hydroxypropyl)-1H-1,2,3-triazol-1-yl)pyridin-2-yl)-1H-pyrazolo[3,4-b]pyridine-5-carbonitrile] | 8.10 | 22.5 | 6.48 |
| CCCc1cn(-c2cnc(-n3ncc4cc(C#N)cnc43)cc2Nc2cnn(CC(F)F)c2)nn1 [Example 269, 1-(4-((1-(2,2-difluoroethyl)-1H-pyrazol-4-yl)amino)-5-(4-propyl-1H-1,2,3-triazol-1-yl)pyridin-2-yl)-1H-pyrazolo[3,4-b]pyridine-5-carbonitrile] | 8.40 | 3.8 | 6.41 |
| CCCc1cn(-c2cnc(-n3ncc4cncnc43)cc2Nc2cnn(CC(F)F)c2)nn1 [Example 270, N-(1-(2,2-difluoroethyl)-1H-pyrazol-4-yl)-5-(4-propyl-1H-1,2,3-triazol-1-yl)-2-(1H-pyrazolo[3,4-d]pyrimidin-1-yl)pyridin-4-amine] | 8.22 | 37.2 | 5.93 |
| CCCc1cn(-c2cnc(-n3ncc4cc(C#N)c(N)nc43)cc2NC(C)C)nn1 [Example 280, 6-amino-1-(4-(isopropylamino)-5-(4-propyl-1H-1,2,3-triazol-1-yl)pyridin-2-yl)-1H-pyrazolo[3,4-b]pyridine-5-carbonitrile] | 8.52 | 27.6 | 6.64 |
| CC(C)Nc1cc(-n2ncc3cc(C#N)cnc32)ncc1-n1cc(CCCO)nn1 [Example 296, 1-(5-(4-(3-hydroxypropyl)-1H-1,2,3-triazol-1-yl)-4-(isopropylamino)pyridin-2-yl)-1H-pyrazolo[3,4-b]pyridine-5-carbonitrile] | 7.96 | 4.4 | 6.62 |
| CC(C)Nc1cc(-n2ncc3cc(C#N)cnc32)ncc1-n1cc(CCCCO)nn1 [Example 311, 1-(5-(4-(4-hydroxybutyl)-1H-1,2,3-triazol-1-yl)-4-(isopropylamino)pyridin-2-yl)-1H-pyrazolo [3,4-b]pyridine-5-carbonitrile] | 8.22 | 6.4 | 6.92 |
| CCC(C)(O)Cc1cn(-c2cnc(-n3ncc4cc(C#N)cnc43)cc2NC(C)C)nn1 (stereo not drawn) [Example 318, 1-(5-(4-(2-hydroxy-2-methylbutyl)-1H-1,2,3-triazol-1-yl)-4-(isopropylamino)pyridin-2-yl)-1H-pyrazolo[3,4-b]pyridine-5-carbonitrile] | 7.60 | 10.8 | 6.10 |
| CC(C)Nc1cc(-n2ncc3cc(C#N)cnc32)ncc1-n1cc(CCC(C)(C)O)nn1 [Example 327, 1-(5-(4-(3-hydroxy-3-methylbutyl)-1H-1,2,3-triazol-1-yl)-4-(isopropylamino)pyridin-2-yl)-1H-pyrazolo[3,4-b]pyridine-5-carbonitrile] | 8.52 | 7.4 | 6.70 |
| CC(=O)Cc1cn(-c2cnc(-n3ncc4cc(C#N)cnc43)cc2NC(C)C)nn1 [Example 331, 1-(4-(isopropylamino)-5-(4-(2-oxopropyl)-1H-1,2,3-triazol-1-yl)pyridin-2-yl)-1H-pyrazolo[3,4-b]pyridine-5-carbonitrile] | 8.00 | 9.2 | 5.59 |
| N#Cc1cnc2c(cnn2-c2cc(NC3CC3)c(-n3cc(C4CCOCC4)nn3)cn2)c1 [Example 348, 1-(4-(cyclopropylamino)-5-(4-(tetrahydro-2H-pyran-4-yl)-1H-1,2,3-triazol-1-yl)pyridin-2-yl)-1H-pyrazolo[3,4-b]pyridine-5-carbonitrile] | 7.89 | 41 | 6.77 |
| CC(C)Nc1cc(-n2ncc3cc(C#N)cnc32)ncc1-n1cc(CCN2CCOCC2)nn1 [Example 349, 1-(4-(isopropylamino)-5-(4-(2-morpholinoethyl)-1H-1,2,3-triazol-1-yl)pyridin-2-yl)-1H-pyrazolo[3,4-b]pyridine-5-carbonitrile] | 8.52 | 18.6 | 6.57 |

Other lines, results leading:

| pIC50 [1] | Papp at 2 h, 3 µM [2] [×10⁻⁶ cm/s] | pEC50 [3] | Structure (SMILES) |
| --- | --- | --- | --- |
| 8.70 | < 1.5 | 7.15 | CC(C)Nc1cc(-n2ncc3cc(C#N)cnc32)ncc1-n1cc(C2CCNCC2)nn1 [Example 334, 1-(4-(isopropylamino)-5-(4-(piperidin-4-yl)-1H-1,2,3-triazol-1-yl)pyridin-2-yl)-1H-pyrazolo[3,4-b]pyridine-5-carbonitrile] |
| 8.15 | 25 | 6.66 | CC(C)Nc1cc(-n2ncc3cc(C#N)cnc32)ncc1-n1cc(C2CCN(CC(F)F)CC2)nn1 [Example 336, 1-(5-(4-(1-(2,2-difluoroethyl)piperidin-4-yl)-1H-1,2,3-triazol-1-yl)-4-(isopropylamino)pyridin-2-yl)-1H-pyrazolo[3,4-b]pyridine-5-carbonitrile] |
| 8.22 | < 1.5 | 6.55 | CC(C)Nc1cc(-n2ncc3cc(C#N)cnc32)ncc1-n1cc(C2CCN(C(C)C)CC2)nn1 [Example 337, 1-(4-(isopropylamino)-5-(4-(1-isopropylpiperidin-4-yl)-1H-1,2,3-triazol-1-yl)pyridin-2-yl)-1H-pyrazolo[3,4-b]pyridine-5-carbonitrile] |
| 8.22 | 17.9 | 6.42 | COC(=O)N1CCC(c2cn(-c3cnc(-n4ncc5cc(C#N)cnc54)cc3NC(C)C)nn2)CC1 [Example 338, methyl 4-(1-(6-(5-cyano-1H-pyrazolo[3,4-b]pyridin-1-yl)-4-(isopropylamino)pyridin-3-yl)-1H-1,2,3-triazol-4-yl)piperidine-1-carboxylate] |
| 8.30 | < 1.5 | 6.41 | CC(=O)N1CC(c2cn(-c3cnc(-n4ncc5cc(C#N)cnc54)cc3NC(C)C)nn2)C1 [Example 339, 1-(5-(4-(1-acetylazetidin-3-yl)-1H-1,2,3-triazol-1-yl)-4-(isopropylamino)pyridin-2-yl)-1H-pyrazolo[3,4-b]pyridine-5-carbonitrile] |
| 8.52 | < 1.5 | 6.52 | CC(=O)NC1CCC(c2cn(-c3cnc(-n4ncc5cc(C#N)cnc54)cc3NC(C)C)nn2)CC1 (stereo not drawn) [Example 341, N-((1s,4s)-4-(1-(6-(5-cyano-1H-pyrazolo[3,4-b]pyridin-1-yl)-4-(isopropylamino)pyridin-3-yl)-1H-1,2,3-triazol-4-yl)cyclohexyl)acetamide] |
